# From patent publication US20260356879A1, “CELASTROL DERIVATIVES” (Celloram Inc., priority 2022, published 2026)
# Entries after “also recorded” stand apart in the source; their conditions may differ.
# Legend:
# THP-1 cells = experiment: THP-1 cell viability (inflammasome-induced pyroptosis), live/dead staining and flow cytometry; type: cell-based, human; settings: THP-1, LPS and Nigericin, 0 μM to 10 μM; FIG. 7A
# From the text: (§1) Pyroptosis, a pro-inflammatory form of cell death, is triggered by the activation of NLRP3 inflammasome components (GSDMD and Caspase-1), leading to the release of pro-inflammatory cytokines IL-1β and IL-18, as well as damage-associated molecular patterns (DAMPs). This process elicits a cascade of inflammatory responses, which can persist if dysregulated in affected tissues. Given the significant inhibitory potential of CLM-022 against NLRP3 inflammasome and IL-1β secretion, it was proposed that CLM-022 could effectively enhance cell viability by inhibiting pyroptosis in the context of inflammation and inflammasome activation. This example illustrates a comparative study of the abilities of CLM-022 and MCC950 to protect THP-1 cells from inflammasome-induced pyroptosis.
# (§2) After LPS and Nigericin treatment, THP-1 cells were treated with either CLM-022 or MCC950 over a dosage range of 0 μM to 10 μM and cell viability was determined by impermeant live/dead staining dye and flow cytometric analysis. Additionally, NLRP3 inflammasome-induced cytotoxicity was investigated by measuring the level of LDH in the conditioned media after the CLM-022 and MCC950 treatments. Further, Western blotting of samples from the THP-1 cell viability assays was carried out to determine levels of the pyroptosis-mediating molecules, GSDMD and Caspase-1.
# GSDMD and Caspase-1 = GSDMD and Caspase-1 cleavage in THP-1 cells (western blot); type: cell-based; settings: Homo sapiens; THP-1, western blot; FIG. 7C; read-out: concentration inhibiting GSDMD and Caspase-1 cleavage
# From the text: as §1, §2
# NLRP3 inflammasome = experiment: Secreted IL-1β in conditioned media of BMDC (ELISA), LPS+ATP or LPS+Nigericin; type: cell-based; settings: 63-500 nM, FIG. 2B
# Method: FIG. 2A depicts western blot images showing the relative NLRP3 inflammasome activity of the compounds 22 (CLM-022) and 1 (CLM-001) by detecting the level of cellular ASC complex and the mature form of IL-1β (15 kDa) in a conditioned media of BMDCs treated with LPS (100 ng/ml) for 3 hours and then the compound at 50 nM, 100 nM, and 500 nM concentration for 30 min, followed by ATP or Nigericin. ASC monomer and β-Actin proteins were used as controls. FIG. 2B depict plots of results showing secreted IL-1β levels measured by ELISA using conditioned media of BMDC treated with the compound 22 or compound 1 at 63 nM, 125 nM, 250 nM, and 500 nM, under NLRP3 inflammasome activation induced either by LPS+ATP or LPS+Nigericin. FIG. 2C depict plots of results showing secreted TNF-α levels measured by ELISA using conditioned media of BMDC treated with the compound 22 or compound 1 at 63 nM, 125 nM, 250 nM, and 500 nM, under NLRP3 inflammasome activation induced either by LPS+ATP or LPS+Nigericin.
# 1. […] After 30 minutes Nigericin (10 μM) or ATP (5 mM) was added (Signal 2) and the level of NLRP3-dependent inflammasome activity was determined by western blotting the treated cells with ASC complex (>48 kDa). […]
smiles,measurement,setting,value
"CC1=C(O)C(=O)C=C2C1=CC=C1[C@@]2(C)CC[C@@]2(C)[C@@H]3C[C@](C)(N(C)C(=O)C(=O)N(C)C)CC[C@]3(C)CC[C@]12C [Compound 22, N′-[(2R,4aS,6aR,6aS,14aS,14bR)-10-hydroxy-2,4a,6a,6a,9,14a-hexamethyl-11-oxo-1,3,4,5,6,13,14,14b-octahydropicen-2-yl]-N,N,N′-trimethyl-oxamide]",increase in cell viability,THP-1 cells,up to 60%
same,minimal effective concentration,GSDMD and Caspase-1,≤ 0.1 µM
same,inhibition of IL-1β secretion,NLRP3 inflammasome,more strongly inhibited IL-1β secretion induced by both LPS+ATP and LPS+Nigericin; also recorded: strongly inhibited IL-1β secretion via suppression of NLRP3 inflammasome
